The values that follow come from ChEMBL document CHEMBL2177021, “Flavaglines as potent anticancer and cytoprotective agents” (J Med Chem, 2012).

A short description of series [1]: Cytotoxicity against human HL60R cells overexpressing Pgp incubated for 72 hrs by MTS assay. For orientation: Formazan colour is commonly taken as a measure of viable cells.
The subject of series [2] is H9c2. In words: Cardioprotection in rat H9c2 cells assessed as reduction in doxorubicin-induced toxicity at 10 nM pre-treated 10 hrs before doxorubicin challenge and measured 14 hrs post doxorubicin challenge by propidium iodide and annexin V staining. The class given is functional, cell-based.
In series [3] the test system is HL-60. In words: cells. Particulars: Homo sapiens, HL-60, 72 h.
Description: Cytotoxicity against human HL60 cells incubated for 72 hrs by MTS assay
Series [4] concerns HCT-116. Conditions: Homo sapiens, HCT-116, 72 h.
Series [5] deals with KB. Particulars: Homo sapiens, 72 h.
Series [6] deals with H9c2. Briefly: Cardioprotection in rat H9c2 cells assessed as reduction in doxorubicin-induced toxicity at 100 nM pre-treated 10 hrs before doxorubicin challenge and measured 14 hrs post doxorubicin challenge by propidium iodide and annexin V staining. The series is classed as functional, cell-based.
The species named for series [7] is Mus musculus. In words: Cardioprotective effect in mouse assessed as attenuation of cardiomyocyte apoptosis by measuring reduction in mouse mortality. The class given is functional. More on the design: scale not given: the % may be the effect or the level left.
Series [8] is filed under the species Rattus norvegicus. In words: Neuroprotection in Wistar rat DA neurons assessed as reduction in MPP+-induced neurotoxicity at 10 nM pre-treated 1 day before MPP+ by tyrosine hydroxylase detection based immunocytochemistry. The series is classed as functional.
The species entered for series [9] is Mus musculus. Briefly: Cardioprotective effect in mouse assessed as attenuation of cardiac fibrosis by measuring reduction in mouse mortality. The class given is functional, Heart. More on the design: scale not given: the % may be the effect or the level left.
The nature of series [10]: Toxicity in mouse cerebellar granule neurons assessed as induction of apoptosis at 0.25 to 10 nM incubated for 48 hrs by MTT assay. Conditions: cerebellar granule neurone, 0.01 µM.
For series [11], the species on record is Rattus norvegicus. Briefly: Neuroprotection in Wistar rat DA neurons assessed as reduction in MPP+-induced neurotoxicity at 0.1 to 1000 nM pre-treated 1 day before MPP+ by tyrosine hydroxylase detection based immunocytochemistry. The series is classed as functional.
The species named for series [12] is Rattus norvegicus. Briefly: Neuroprotection in Wistar rat DA neurons assessed as reduction in MPP+-induced neurotoxicity at 1 nM pre-treated 1 day before MPP+ by tyrosine hydroxylase detection based immunocytochemistry. The series is classed as functional.
Series [13] relates to Cerebellar granule neurone. In words: Neuroprotection in mouse cerebellar granule neurons assessed as reduction in cisplatin-induced neurotoxicity at 5 nM incubated simultaneously with cisplatin for 48 hrs by MTT assay. The series is classed as functional.
The species entered for series [14] is Rattus norvegicus. In words: Neuroprotection in Wistar rat DA neurons assessed as reduction in MPP+-induced neurotoxicity at 100 nM pre-treated 1 day before MPP+ by tyrosine hydroxylase detection based immunocytochemistry. The series is classed as functional.
Series [15] is filed under the species Rattus norvegicus. Briefly: Neuroprotection in Wistar rat DA neurons assessed as reduction in MPP+-induced neurotoxicity at 10 uM pre-treated 1 day before MPP+ by tyrosine hydroxylase detection based immunocytochemistry. The series is classed as functional.
Series [16] concerns Cerebellar granule neurone. In words: Neuroprotection in mouse cerebellar granule neurons assessed as reduction in cisplatin-induced neurotoxicity at 10 nM incubated simultaneously with cisplatin for 48 hrs by MTT assay. The class given is functional.
The species named for series [17] is Rattus norvegicus. Briefly: Neuroprotection in Wistar rat DA neurons assessed as reduction in MPP+-induced neurotoxicity at 1 to 100 nM pre-treated 1 day before MPP+ by tyrosine hydroxylase detection based immunocytochemistry. The series is classed as functional.
Series [18] concerns Cerebellar granule neurone. Briefly: Neuroprotection in mouse cerebellar granule neurons assessed as reduction in cisplatin-induced neurotoxicity at 0.25 to 10 nM incubated simultaneously with cisplatin for 48 hrs by MTT assay. The series is classed as functional.
Series [19] has as its system Cerebellar granule neurone. In words: Neuroprotection in mouse cerebellar granule neurons assessed as reduction in cisplatin-induced neurotoxicity at 1 to 5 nM incubated simultaneously with cisplatin for 48 hrs by MTT assay. The class given is functional.
The species named for series [20] is Rattus norvegicus. In words: Neuroprotection in Wistar rat DA neurons assessed as reduction in MPP+-induced neurotoxicity at 1 to 1000 nM pre-treated 1 day before MPP+ by tyrosine hydroxylase detection based immunocytochemistry. The series is classed as functional.

As usually defined, the IC50 is the concentration that inhibits the measured activity by half.

Active and inactive are the calls of the source. No cut-off for these calls is given here.

For the compound `CC(=O)O[C@@]12CO[C@@H]1C[C@H](O)[C@@]1(C)C(=O)[C@H](O)C3=C(C)[C@@H](OC(=O)[C@H](O)[C@@H](NC(=O)OC(C)(C)C)c4ccccc4)C[C@@](O)([C@@H](OC(=O)c4ccccc4)[C@H]21)C3(C)C` [DOCETAXEL], the concentration for half-maximal inhibition (IC50) in series [1] was determined as 531 nM.

For the compound `COc1cc(OC)c2c(c1)O[C@@]1(c3ccc(Cl)cc3)[C@H](c3cccc(F)c3)C[C@H](NC=O)[C@@]21O`, the outcome in series [2] and in series [6] was Active. For the same compound, the IC50 worked out at 13 nM in series [3], 8.2 nM in series [4] and 10 nM in [5].

Consider `COc1cc(OC)c2c(c1)O[C@@]1(c3ccc(Br)cc3)[C@H](c3cccc(F)c3)C[C@H](NC=O)[C@@]21O`, for which the outcome in series [2] was Active. Further, the 50% inhibitory concentration (IC50) in series [3] amounted to 3.4 nM; in [1], 1.4 nM; in series [4] it was 1.9 nM; in series [5], 3.5 nM.

In the case of `COc1cc(OC)c2c(c1)O[C@@]1(c3ccc(Br)cc3)[C@H](c3ccccc3)C[C@@H](O)[C@@]21O`, the outcome in series [2], in series [8] and in series [6] was Active. For the same compound, the Activity in series [7] and in [9] was 50% in each case. For the same compound, the concentration for half-maximal inhibition (IC50) amounted to 3.8 nM in series [3], 4.5 nM in series [1], 5.8 nM in series [4] and 2.4 nM in series [5].

As to `COc1cc(OC)c2c(c1)O[C@@]1(c3ccc(Br)cc3)[C@H](c3cccc(F)c3)C[C@H](NC(=O)N(C)C)[C@@]21O`, the result in series [2], in [11], in series [12] and in series [6] was Active. In addition, the Activity entry in [10] is recorded as “Non-toxic”. In addition, the concentration for half-maximal inhibition (IC50) in [3] was 4.1 nM; in [1] it was 2.2 nM; in series [4], 2.4 nM; in series [5], 3.6 nM.

Consider `COc1cc(OC)c2c(c1)O[C@@]1(c3ccc(Br)cc3)[C@H](c3cccc(F)c3)C[C@H](NC(=O)CO)[C@@]21O`, for which the outcome in [2] was inactive. The concentration for half-maximal inhibition (IC50) amounted to 31 nM in [3], 42 nM in [1], 22 nM in [4] and 37 nM in [5]. The result in series [6] was Active.

In the case of `COc1cc(OC)c2c(c1)O[C@@]1(c3ccc(Br)cc3)[C@H](c3cccc(F)c3)C[C@H](NC(C)=O)[C@@]21O`, the result in [2] was Active. Further, the concentration for half-maximal inhibition (IC50) came out at 10 nM in series [3], 7.1 nM in series [1], 7.5 nM in series [4] and 8.4 nM in series [5]. Further, the outcome in series [6] was inactive.

As for `COc1cc(OC)c2c(c1)O[C@@]1(c3ccc(Br)cc3)[C@H](c3cccc(F)c3)[C@@H](C(N)=O)[C@@H](O)[C@@]21O`, in [2], the outcome was Active. Also, the IC50 in series [3] is 1.4 nM; in [1] it was 3.3 nM; in [4], 1.2 nM; in series [5] it was 1.2 nM. In addition, the outcome in series [6] was inactive.

Regarding `COC(=O)[C@H]1[C@@H](O)[C@@]2(O)c3c(OC)cc(OC)cc3O[C@@]2(c2ccc(OC)cc2)[C@@H]1c1cccc(F)c1`, the 50% inhibitory concentration (IC50) in [3] came out at 20 nM; in [1] it was 28 nM; in [4] it was 5.2 nM; in [5], 9.9 nM.

On to `COc1cc(OC)c2c(c1)O[C@@]1(c3ccc(Br)cc3)[C@H](c3cccc(F)c3)C[C@H](NC(=O)CN(C)C)[C@@]21O`, for which the outcome in series [2] and in series [6] was Active. Moreover, the half-inhibitory concentration (IC50) in [3] was determined as 4.8 nM; in series [1], 5.6 nM; in series [4] it was 5 nM; in [5], 5.8 nM.

`COC(=O)[C@H]1[C@@H](O)[C@@]2(O)c3c(OC)cc(OC)cc3O[C@@]2(c2ccc(Cl)cc2)[C@@H]1c1ccccc1`: the 50% inhibitory concentration (IC50) in [3] was found to be 29 nM; in [1] it was 13 nM; in series [4], 19 nM; in series [5], 2.4 nM.

As for `COc1ccc([C@@]23Oc4cc(OC)cc(OC)c4[C@]2(O)[C@H](O)C[C@H]3c2cccc(F)c2)cc1`, the result in [2], in [13], in series [14] and in [6] was Active. In series [10], the Activity entry is recorded as “Non-toxic”. The IC50 worked out at 94 nM in [3], 60 nM in [1], 23 nM in series [4] and 41 nM in series [5]. In addition, the outcome in series [15] and in [16] was inactive.

Consider `COc1cc(OC)c2c(c1)O[C@@]1(c3ccc(Cl)cc3)[C@H](c3cccc(F)c3)C[C@H](NC(=O)N(C)C)[C@@]21O`, for which the outcome in [2] and in series [6] was Active. In addition, the result in series [8] was inactive. Besides, the half-maximal inhibitory concentration (IC50) in [3] is 3.2 nM; in [4] it was 1.9 nM; in [5], 2.1 nM.

In [1], `CC[C@]1(O)C[C@@H]2CN(CCc3c([nH]c4ccccc34)[C@@](C(=O)OC)(c3cc4c(cc3OC)N(C)[C@H]3[C@@](O)(C(=O)OC)[C@H](OC(C)=O)[C@]5(CC)C=CCN6CC[C@]43[C@@H]65)C2)C1` [VINBLASTINE] returned an IC50 above 100 nM.

For `COc1cc(OC)c2c(c1)O[C@@]1(c3ccc(Br)cc3)[C@H](c3cccc(F)c3)C[C@@H](O)[C@@]21O`, the outcome in series [2] and in series [6] was Active. Moreover, the IC50 in [3] is 8.9 nM; in series [1], 3.1 nM; in series [4] it was 5.3 nM; in [5], 10 nM.

For the compound `COc1cc(OC)c2c(c1)O[C@@]1(c3ccc(Br)cc3)[C@H](c3cccc(F)c3)C[C@H](NC(N)=O)[C@@]21O`, the values for the half-inhibitory concentration (IC50) in series [3], in series [4] and in series [5] were 3.3 nM, 2.1 nM and 2.9 nM, respectively.

As for `COC(=O)[C@H]1[C@@H](O)[C@@]2(O)c3c(OC)cc(OC)cc3O[C@@]2(c2ccc(Br)cc2)[C@@H]1c1cccc(F)c1`, the IC50 in series [3] was determined as 3.2 nM; in [1] it was 14 nM; in series [4] it was 2.4 nM; in series [5] it was 2.8 nM. In [17], the result was Active.

For `CCC(=O)N[C@H]1C[C@@H](c2cccc(F)c2)[C@]2(c3ccc(Br)cc3)Oc3cc(OC)cc(OC)c3[C@]12O`, in series [2], the result was Active. In addition, the IC50 in series [3] turned out to be 6.2 nM; in [1] it was 4.9 nM; in [4], 5.3 nM; in series [5], 7.8 nM. The outcome in [6] was inactive.

Regarding `COc1cc(OC)c2c(c1)O[C@@]1(c3ccc(Br)cc3)[C@H](c3ccccc3)C[C@H](NC=O)[C@@]21O`, the result in series [2], in series [18], in series [19], in series [20] and in [17] was Active. For the same compound, the Activity entry in series [10] is given as “Non-toxic”. In series [1], this compound registered a half-inhibitory concentration (IC50) of 1.7 nM.

Regarding `COc1cc(OC)c2c(c1)O[C@@]1(c3ccc(Cl)cc3)[C@H](c3ccccc3)C[C@@H](O)[C@@]21O`, the result in [2] and in series [6] was Active. Moreover, the half-maximal inhibitory concentration (IC50) was determined as 5.9 nM in series [3], 2.4 nM in [1], 4.6 nM in [4] and 6.6 nM in series [5].

Take `COC(=O)N[C@H]1C[C@@H](c2cccc(F)c2)[C@]2(c3ccc(Cl)cc3)Oc3cc(OC)cc(OC)c3[C@]12O`: the IC50 was determined as 71 nM in series [3], 38 nM in series [4] and 50 nM in [5]. The outcome in series [11] and in [6] was Active.
